Reference: paper PMC6934184, “Selective DNA-PKcs inhibition extends the therapeutic index of localized radiotherapy and chemotherapy” (The Journal of Clinical Investigation, 2019)

Biological target: T1, EPHA3 (Homo sapiens, UniProt P29320)
T1 construct: purchased Thermo Fisher Scientific (Life Technologies) SelectScreen
Test: SelectScreen LanthaScreen
Type: binding
Details: read-out: % displacement
Procedure, shortened: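 Percent values come from Thermo SelectScreen profiling of NU5455, combining activity and binding assays. CSF1R was run in Z'LYTE format at Km app ATP, and CAMK1 in Adapta format with ATP listed at 10.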

T1 sequence (P29320 21-983): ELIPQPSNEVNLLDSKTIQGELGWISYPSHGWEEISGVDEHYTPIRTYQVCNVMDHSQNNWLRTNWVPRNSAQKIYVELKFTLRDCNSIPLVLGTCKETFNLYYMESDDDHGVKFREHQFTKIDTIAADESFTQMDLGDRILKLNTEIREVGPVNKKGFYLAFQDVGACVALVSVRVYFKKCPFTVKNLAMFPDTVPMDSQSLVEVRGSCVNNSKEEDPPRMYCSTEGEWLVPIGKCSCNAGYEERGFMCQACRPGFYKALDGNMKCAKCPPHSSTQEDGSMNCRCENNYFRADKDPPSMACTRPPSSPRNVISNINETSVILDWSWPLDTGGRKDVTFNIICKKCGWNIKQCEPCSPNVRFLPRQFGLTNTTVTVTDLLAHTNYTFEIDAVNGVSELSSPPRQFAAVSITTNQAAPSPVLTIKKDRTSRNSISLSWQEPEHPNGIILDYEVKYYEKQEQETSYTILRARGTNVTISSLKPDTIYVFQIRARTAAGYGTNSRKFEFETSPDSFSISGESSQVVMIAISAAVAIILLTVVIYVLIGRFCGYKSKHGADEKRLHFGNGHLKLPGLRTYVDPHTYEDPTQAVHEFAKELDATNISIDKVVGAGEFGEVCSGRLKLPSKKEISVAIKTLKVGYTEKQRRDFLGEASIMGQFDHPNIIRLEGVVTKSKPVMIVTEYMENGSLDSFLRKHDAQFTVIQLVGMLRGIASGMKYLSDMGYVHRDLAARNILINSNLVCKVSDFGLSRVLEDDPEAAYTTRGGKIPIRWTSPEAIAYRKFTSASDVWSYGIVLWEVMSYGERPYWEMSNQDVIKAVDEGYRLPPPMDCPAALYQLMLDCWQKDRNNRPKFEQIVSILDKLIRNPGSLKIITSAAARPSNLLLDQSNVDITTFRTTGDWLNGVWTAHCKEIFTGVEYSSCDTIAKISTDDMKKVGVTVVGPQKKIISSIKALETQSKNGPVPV

## CN(C(=O)CN1CCOCC1)c1ccc2sc3c(-c4cccc5c(=O)cc(N6CC7CCC(C6)O7)oc45)cccc3c2c1 [NU5455]
  inhibition at 1 µM: -0.3%
